The source of these data is publication doi:10.1101/2023.10.14.562361v1 (biorxiv, 2023).

For one experiment, the target named is Smurf1 FL (Homo sapiens, UniProt Q9HCE7). As to the kind of experiment: UbFluor fluorescence polarization assay. It is filed as biochemical. Background: In fluorescence polarisation assays a small probe gives low polarisation when free and higher when bound to something large.
The target in experiment [1] is T1, Smurf1 HECT (Homo sapiens, UniProt Q9HCE7). Put plainly: UbFluor fluorescence polarization assay. Type of experiment: biochemical.
Experiment [2] deals with T1, Smurf1 HECT. As to the kind of experiment: biolayer interferometry. It is filed as binding.
The test system of the next experiment is Smurf1C2. Put plainly: UbFluor fluorescence polarization assay. It is filed as biochemical, Homo sapiens. To be noted: 0.5 µM enzyme, 2 µM UbFluor, pH 7.4, 0.01% Tween20.

T1 sequence (Q9HCE7 341-757): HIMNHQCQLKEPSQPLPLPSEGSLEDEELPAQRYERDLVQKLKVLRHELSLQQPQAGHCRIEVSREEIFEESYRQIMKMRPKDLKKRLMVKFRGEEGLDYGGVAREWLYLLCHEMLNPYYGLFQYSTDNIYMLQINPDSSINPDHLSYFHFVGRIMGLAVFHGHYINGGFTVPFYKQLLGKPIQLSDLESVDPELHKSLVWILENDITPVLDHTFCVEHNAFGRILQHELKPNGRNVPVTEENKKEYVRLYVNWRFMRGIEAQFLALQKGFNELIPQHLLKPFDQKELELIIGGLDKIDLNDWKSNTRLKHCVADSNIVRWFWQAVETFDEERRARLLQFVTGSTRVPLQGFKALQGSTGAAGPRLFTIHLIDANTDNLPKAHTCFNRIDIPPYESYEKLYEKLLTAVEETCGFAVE
Smurf1 FL, sequence (Q9HCE7 whole entry): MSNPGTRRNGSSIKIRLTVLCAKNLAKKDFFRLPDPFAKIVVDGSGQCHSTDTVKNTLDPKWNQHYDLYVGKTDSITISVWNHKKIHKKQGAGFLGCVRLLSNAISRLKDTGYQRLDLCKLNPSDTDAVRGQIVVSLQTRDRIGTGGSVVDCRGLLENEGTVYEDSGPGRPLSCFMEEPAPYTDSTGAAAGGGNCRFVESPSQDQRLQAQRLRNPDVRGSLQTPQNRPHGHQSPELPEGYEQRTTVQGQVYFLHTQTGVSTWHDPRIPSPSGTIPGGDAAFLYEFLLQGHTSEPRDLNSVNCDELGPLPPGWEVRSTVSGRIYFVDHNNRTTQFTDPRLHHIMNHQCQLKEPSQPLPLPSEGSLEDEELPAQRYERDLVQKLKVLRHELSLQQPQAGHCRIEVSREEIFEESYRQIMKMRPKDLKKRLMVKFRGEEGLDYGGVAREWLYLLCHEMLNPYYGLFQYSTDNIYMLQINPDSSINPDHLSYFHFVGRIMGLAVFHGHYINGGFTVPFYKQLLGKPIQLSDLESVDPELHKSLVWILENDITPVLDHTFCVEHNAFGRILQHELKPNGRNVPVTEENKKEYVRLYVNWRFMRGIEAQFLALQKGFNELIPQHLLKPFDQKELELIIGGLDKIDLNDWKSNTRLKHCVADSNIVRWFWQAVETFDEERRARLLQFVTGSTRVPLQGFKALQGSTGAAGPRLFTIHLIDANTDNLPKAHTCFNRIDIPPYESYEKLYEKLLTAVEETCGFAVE

As for `Cc1c(NC(=O)c2noc3c2CCSc2cc(OC(F)(F)F)ccc2-3)c(=O)n(C2CCCCC2)n1C` [compound 1], the IC50 is 230 nM against Smurf1 FL, 450 nM against Smurf1 HECT [1] and 140 nM with Smurf1C2. In addition, the Kd on Smurf1 HECT [2] was determined as 25800 ± 2200 nM.

Consider `Cc1c(C(=O)Nc2c(C)n(C)n(C3CCCCC3)c2=O)nnn1-c1ccc(OC(F)(F)F)cc1Cl` [compound 2], for which the Kd at Smurf1 HECT [2] worked out at 54500 ± 2000 nM. This molecule also displayed a 50% inhibitory concentration (IC50) in the experiment with Smurf1C2 of 3100 nM.

What is called IC50 is the midpoint of a concentration-inhibition curve. A higher IC50 goes with a need for much substance. For orientation: Kd means the constant that tells how readily two partners part at equilibrium. A higher Kd goes with weaker binding.
